Measured values as given in US20090036540A1, “Guanylhydrazones in Methods of Treatment or Diagnosis as Modulators of Signal Transduction” (Cytokine PharmaSciences, Inc., priority 2003, published 2009).
“Also recorded” adds a separate entry of the source.

Tests used:
pMek1/2 = test: Immunohistochemistry of biopsies from Crohn's disease patients for pMek1/2 expression; format: in vivo, human; settings: before vs after treatment
Experimental: Biopsies obtained from Crohn's disease patients (before and after Semapimod treatment) who participated in the Semapimod-pilot study in the AMC, were analyzed by immunohistochemistry.
Biopsies obtained from Crohn's disease patients (before and after treatment) who participated in the Semapimod-pilot study performed in our department, were analyzed for pMek1/2 expression (the substrate of Raf) by immunohistochemistry (FIGS. 8-9).

Raf kinase = test: Raf in vitro kinase assay (pMek immunoblot); format: biochemical; settings: active Raf kinase, 1 μM Semapimod for 5 and 10 minutes
Experimental: A commercially available in vitro kinase kit (Upstate, cat#: 17-360) was used to study the direct effect of Semapimod on Raf kinase activity. […] Furthermore, active Raf together with Mek, without Semapimod, served as a positive control. Active Raf without the Mek-substrate, left untreated, served as a negative control. The in vitro kinase reaction was performed at 30 C.° for 20 minutes. Sample buffer was added to terminate the reaction, and loaded on […] SDS-PAGE. The immunoblot was analyzed for pMek expression.
Pan-Raf protein expression was analyzed to test for equal loading. Two experiments were performed and similar results were obtained.

PBMCs = test: Western blot of LPS-stimulated PBMCs for phosphorylated proteins; format: cell-based, human; settings: 1.0 μM CNI-1493 pre-incubation, LPS 15 minutes
Experimental: Peripheral Blood Mononuclear Cells (PBMCs) were isolated from peripheral blood from healthy volunteers using standard density-gradient centrifugation over Ficoll-Paque Plus (Amersham Pharmacia Biotech AB, Uppsala, Sweden) after washing in resuspension in IMDM supplemented with 10% FBS, penicillin, streptomycin and amphotericin (hereafter referred to as complete IMDM).
For western blot samples, […] PBMCs were suspended in 1 ml media and LPS stimulations were 15 minute incubations (37° C., 5% CO2) with 10 ng/ml LPS or pre-incubated with 1.0 μM CNI-1493 (Cytokine PharmaSciences, Inc.). Stimulations were terminated by an ice-cold PBS wash. Cells were subsequently pelleted, lysed, denatured (5 minutes at 95° C.) and stored at −20° C. 10^6 PBMCs lysed in 200 μl SDS Sample Buffer (62.5 mM Tris-HCl (pH 6.8 at 25° C.), 2% w/v SDS, 10% glycerol, 50 mM DTT, 0.01% w/v bromophenol blue), 25 μl of which was separated on 12% SDS-PAGE gels and transferred to nitrocellulose membranes. Antibodies for immunoblotting were from Cell Signaling and included Phospho-p38 MAP Kinase (cat #9211), Phospho-p44/42 MAP Kinase (cat #9101), Phospho-PKCzeta/lambda (cat #9378), Phospho-MEK1/2 (cat #9121), Phospho-Raf (cat #9424) and Phospho-SAPK/JNK (cat #9255).

4/4 macrophages = test: Cytotoxic effect in 4/4 macrophages; format: cell-based, murine; settings: Semapimod concentrations ≦1 μM

C/C(=N\NC(=N)N)c1cc(NC(=O)CCCCCCCCC(=O)Nc2cc(/C(C)=N/NC(=N)N)cc(/C(C)=N/NC(=N)N)c2)cc(/C(C)=N/NC(=N)N)c1 [Semapimod]
pMek1/2 expression in biopsies, responders (pMek1/2; Crohn's disease patients who responded (n=5), p=0.0348): significant decrease
pMek1/2 expression in biopsies, nonresponder (pMek1/2; one nonresponder (patient 012)): increased pMek1/2 expression; also recorded: not affected
Raf kinase activity (Raf kinase): inhibited
pMek1/2 expression in in vitro kinase assay (Raf kinase; inactive Mek-substrate): reduced pMek1/2 expression
MEK phosphorylation (PBMCs): abolishes MEK phosphorylation
lipopolysaccharide-dependent phosphorylation of the PKC site in c-Raf (PBMCs): does not interfere
cytotoxic effect (4/4 macrophages): did not have a cytotoxic effect
